The record followed here is BindingDB's records for doi:10.1021/jm00403a014 (National Institute of Diabetes, Digestive and Kidney …, 1988).

A short description of this assay: Binding affinity to sigma site of Phencyclidine receptor by displacement of [3H]-(+)-SKF- 10,047. On the technique in general: Displacement assays read how much labelled ligand stays bound in the presence of the test substance.

A word on the Ki: it is the dissociation constant of the complex between target and ligand, obtained from inhibition or displacement. Lower therefore signals higher affinity. Molecule `c1ccc(C2(N3CCCCC3)CCCCC2)cc1` came in with an inhibitory constant (Ki) of 0.53 µM.
